Test results from PubChem BioAssay AID1549 (Sanford-Burnham Center for Chemical Genomics, 2009).
Active and inactive are the calls of the source. No rule for the calls is given here.

Target: Influenza A virus M2 proton channel (A/TW/4845/1999 H1N1)
Experiment: NMR binding screen, influenza A virus M2 proton channel, Kd (AID 1549)
Conditions: M2 protein

| Structure (SMILES) | Kd |
| --- | --- |
| O=C(Nc1cnc2ccccn2c1=O)c1ccc(F)cc1 | > 4 mM (inactive) |
| CN(C)c1nc(N2CCOCC2)nc(N2CCOCC2)n1 | > 4 mM (inactive) |
| Cc1nc(SCC#N)c2c3c(sc2n1)CCC3 | > 4 mM (inactive) |
| CC1CCC2(OC1)OC1CC3C4CC[C@H]5C[C@@H](O)CC[C@]5(C)C4CC(=O)[C@]3(C)C1C2C (stereo not given in full) | > 4 mM (inactive) |
| O=C(O)CC1NCCNC1=O (stereo not given) | > 4 mM (inactive) |
| CN(C(N)=O)C1(C)CCS(=O)(=O)C1 (stereo not given) | > 4 mM (inactive) |
| CC1(C)NCCN2C(=O)CSC21 (stereo not given) | > 4 mM (inactive) |
| Cc1nc(-c2ccc(C(=O)O)s2)cs1 | > 4 mM (inactive) |
| CS(=O)(=O)Nc1ccc(C(=O)N2CCCCC2)cc1 | > 4 mM (inactive) |
| COC(=O)c1[nH]c2ccccc2c1C(=O)OC | > 4 mM (inactive) |
| NC1CS(=O)(=O)CC1O (stereo not given) | > 4 mM (inactive) |
| CC(=O)Oc1ccc(-c2cc(=O)c3c(OC(C)=O)cc(OC(C)=O)cc3o2)cc1 | > 4 mM (inactive) |
| Cc1ccsc1/C=c1\sc2ncnn2c1=O | > 4 mM (inactive) |
| C=CCc1ccc2c(c1)OCO2 | > 4 mM (inactive) |
| Nc1csc(C(=O)O)c1 | > 4 mM (inactive) |
| C=C1C2CC[C@@]3(C)[C@H](c4ccoc4)OC(=O)C[C@]13O[C@H]1CC(=O)C(C)(C)C(CC(=O)OC)C21C (stereo not given in full) | > 4 mM (inactive) |
| OCc1ccc2nonc2c1 | > 4 mM (inactive) |
| O=C1CSC(=Nc2ccccc2)N1 | > 4 mM (inactive) |
| C=CC(C1=CC(=O)C(OC)=CC1=O)c1ccccc1 (stereo not given) | > 4 mM (inactive) |
| CCOC(=O)c1c(-c2ccncc2)csc1N | > 4 mM (inactive) |
| O=P1(O)c2ccccc2Nc2ccccc21 | > 4 mM (inactive) |
| Nc1nc(SCc2ccc3c(c2)OCO3)n[nH]1 | > 4 mM (inactive) |

| Structure (SMILES) | Kd |
| --- | --- |
| OCC1=Cc2ccccc2OC1 | > 4 mM (inactive) |
| CC(C)NC(=S)N1CCN(S(C)(=O)=O)CC1 | > 4 mM (inactive) |
| CN1CCCCC1c1ccc(-c2cccnc2)nc1 (stereo not given) | > 4 mM (inactive) |
| NC(=O)C1CCN(S(=O)(=O)c2ccccc2)CC1 | > 4 mM (inactive) |
| NC(=O)/C=C/C(=O)Nc1ccccc1 | > 4 mM (inactive) |
| CC(=O)c1csc(-c2cc(C)on2)n1 | > 4 mM (inactive) |
| O=C(O)c1cccc(O)c1O | > 4 mM (inactive) |
| NS(=O)(=O)c1ccc(N=Cc2ccc[nH]2)cc1 | > 4 mM (inactive) |
| Cc1ccn(S(=O)(=O)c2ccc(F)cc2)n1 | > 4 mM (inactive) |
| Cc1cc(N2C(=O)CCC2=O)n(-c2ccccc2)n1 | > 4 mM (inactive) |
| COC(=O)c1ccc(Cl)c(NC(C)=O)c1 | > 4 mM (inactive) |
| O=C1c2cccc3cc(S(=O)(=O)O)cc(c23)C(=O)N1O | > 4 mM (inactive) |
| CC1(C)CC(NC(=O)/C=C/C(=O)O)CC(C)(C)N1 | > 4 mM (inactive) |
| CCOC(=O)c1c(C)nc2cc(C)ccn12 | > 4 mM (inactive) |
| Cn1cccc1C(=S)N1CCOCC1 | > 4 mM (inactive) |
| O=C(c1ccc(N2CCNCC2)cc1)c1cccnc1 | > 4 mM (inactive) |
| O=C(NCCCO)c1ccncc1 | > 4 mM (inactive) |
| CC(=O)N1CCn2c3c(c(=O)c4cc(C)ccc42)CCC31 (stereo not given) | > 4 mM (inactive) |
| COC(=O)[C@@H]1OC(=O)[C@H]2O[C@@]23[C@@]1(C)CCC1[C@@]2(C)CCC(=O)C(C)(C)C2C[C@@H](OC(C)=O)[C@]13C (stereo not given in full) | > 4 mM (inactive) |
| O=C(O)Cc1c[nH]c2ccccc12 | > 4 mM (inactive) |
| CC(=O)Nc1nc(C)c(C(C)=O)s1 | > 4 mM (inactive) |
| CCOc1ccccc1C(=O)NC1=NCCS1 | > 4 mM (inactive) |

| Structure (SMILES) | Kd |
| --- | --- |
| CC(=O)NC1=NN(c2ccccc2)C(=O)C1 | > 4 mM (inactive) |
| COC(=O)[C@@H]1OC(=O)C2OC23[C@@]1(C)CCC1[C@]2(C)C(C[C@H](O)[C@]13C)C(C)(C)[C@H](OC(C)=O)C[C@@H]2OC(C)=O (stereo not given in full) | > 4 mM (inactive) |
| CC(=O)c1c(C)nc(-c2ccc(Cl)cc2Cl)n1O | > 4 mM (inactive) |
| Cc1cc(=O)[nH]c(NCC(=O)O)n1 | > 4 mM (inactive) |
| CC(=O)OCC[C@H](C)CCC=C(C)C | > 4 mM (inactive) |
| Cc1nn2c(=O)/c(=C/c3cccc(F)c3)sc2nc1=O | > 4 mM (inactive) |
| O=C(Nc1nncs1)C1(c2ccccc2)CCCC1 | > 4 mM (inactive) |
| O=C(O)c1ccc(CSc2ncn[nH]2)cc1 | > 4 mM (inactive) |
| CC(=O)NN1C(=O)/C(=C\c2ccc(O)cc2)SC1=S | > 4 mM (inactive) |
| O=C(Nc1cccnc1)Nc1ccc2c(c1)OCO2 | > 4 mM (inactive) |
| O=S1(=O)NC(=NCc2ccccc2)c2ccccc21 | > 4 mM (inactive) |
| O=C(Nc1cccc(C(F)(F)F)c1)c1cccnc1 | > 4 mM (inactive) |
| CN1CCC(NC(=O)c2cnccn2)CC1 | > 4 mM (inactive) |
| COc1ccc(C2=CC(=O)C=CC2=O)cc1 | > 4 mM (inactive) |
| OC12C=CC(CC1)CC2 | > 4 mM (inactive) |
| Cc1c(-c2ccccc2)[n+](=O)c(-c2ccco2)c(C)n1[O-] | > 4 mM (inactive) |
| COc1c(O)cc2c(c1O)[C@H]1O[C@H](CO)[C@@H](O)[C@H](O)[C@@H]1OC2=O | > 4 mM (inactive) |
| Cc1nc(-c2cc(C(=O)O)no2)cs1 | > 4 mM (inactive) |
| Cn1c(=O)cc(N2CCCCC2)[nH]c1=O | > 4 mM (inactive) |
| C/C(=N\NC(N)=S)C(=O)O | > 4 mM (inactive) |
| Cn1c(NCc2ccccc2O)nc2ccccc21 | > 4 mM (inactive) |
| COc1cc([C@@H]2c3cc4c(cc3[C@H](O)[C@H]3COC(=O)[C@@H]23)OCO4)cc(OC)c1OC | > 4 mM (inactive) |

| Structure (SMILES) | Kd |
| --- | --- |
| CCOC(=O)c1cc2ccccc2oc1=O | > 4 mM (inactive) |
| CC(=O)N1CCN(c2ccc(N)cc2)CC1 | > 4 mM (inactive) |
| CC1(C)C(=O)C=C[C@@]2(C)C1C=C[C@]1(C)C2CC[C@@]2(C)[C@H](c3ccoc3)OC(=O)C3OC321 (stereo not given in full) | > 4 mM (inactive) |
| CC(C)c1c(O)ccc2c1CCC1[C@@](C)(CO)CCC[C@]21C (stereo not given in full) | > 4 mM (inactive) |
| CC(=O)Nn1c(=O)[nH]c2ccccc2c1=O | > 4 mM (inactive) |
| c1ccc(CNc2ncnc3nc[nH]c23)nc1 | > 4 mM (inactive) |
| O=C(O)Cn1nc(-c2ccccc2)c2ccccc2c1=O | > 4 mM (inactive) |
| c1cncc(-c2nnc(-c3cccnc3)nn2)c1 | > 4 mM (inactive) |
| CN1C(=O)/C(=C\c2ccc[nH]2)SC1=S | > 4 mM (inactive) |
| NCc1c[nH]c2ccccc12 | > 4 mM (inactive) |
| CCOC(=O)c1csc(C2COc3ccccc3O2)n1 (stereo not given) | > 4 mM (inactive) |
| CC12CC[C@H](CC1=O)C2(C)C | > 4 mM (inactive) |
| OCCNc1nc2ccc(Cl)cc2[nH]1 | > 4 mM (inactive) |
| Cc1ccc(C(=O)CS(C)(=O)=O)cc1 | > 4 mM (inactive) |
| NC(=O)c1cc(Cl)c(C(N)=O)cc1Cl | > 4 mM (inactive) |
| CN1CCC(=NNC(=O)c2ccco2)CC1 | > 4 mM (inactive) |
| COc1cc2c(cc1O)[C@@H](Cc1ccc(O)cc1)[N+](C)(C)CC2 | > 4 mM (inactive) |
| CC(C)=NNC(=O)C(=O)NC(C)(C)C | > 4 mM (inactive) |
| Nc1ccccc1-n1cccn1 | > 4 mM (inactive) |
